The record followed here is US9617256B2 (priority 2007, dated 2017).

For one experiment, the system named is AECO001 (ATCC25922). Kind of experiment: MIC broth microdilution, AECO001. Format: cell-based, E. coli. The settings on record: Escherichia coli. In short, it runs like this:
(§1)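 MICs come from broth microdilution in cation-adjusted Mueller-Hinton broth, final inoculum 3×10^5–7×10^5 CFU/mL, 18-24 hours at 35° C. Levofloxacin and QC strains served as assay controls.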
(In general: In broth dilution the organism is exposed to a series of concentrations in liquid medium.)

Experiment [1] concerns AECO063 (ATCC25922 bearing an acrAB mutation). In words: microbe, parasite or virus in culture. The settings on record: Escherichia coli, ATCC25922, read-out: MIC AECO063. In kind it is cell-based, E. coli. In short, it runs like this: as §1
Another experiment deals with APAE001 (ATCC27853). Kind of experiment: MIC broth microdilution, APAE001. Format: cell-based, P. aeruginosa. The note with it: Pseudomonas aeruginosa, ATCC27853, read-out: MIC APAE001, APAE001 (ATCC27853). In short, it runs like this:
as §1

For experiment [2], the system named is APAE006 (strain of P. aeruginosa in which all efflux pumps are inactivated). In words: microbe, parasite or virus in culture. The settings on record: Pseudomonas aeruginosa, read-out: MIC APAE006, APAE006, all efflux pumps inactivated. In kind it is cell-based. In short, it runs like this: (§2)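 (ambient air) in cation-adjusted MHB; inoculum from 0.5 McFarland suspensions, final 3×10^5–7×10^5 CFU/mL; 2-fold serial drug dilutions per CLSI. APAE006: P. aeruginosa with all efflux pumps inactivated.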

Experiment [3] concerns APAE006 in the presence of 8 micrograms per milliliter of polymyxin B nonapeptide. In kind it is cell-based, P. aeruginosa. The settings on record: APAE006 with 8 micrograms per milliliter polymyxin B nonapeptide. In short, it runs like this: as §2
Experiment [4] has as its system AABA1060 (clinical isolate of Acinetobacter baumannii). In words: MIC broth microdilution, AABA1060. Format: cell-based. The settings on record: Acinetobacter baumannii, read-out: MIC AABA1060. In short, it runs like this: as §1
The subject of experiment [5] is ASAU001 (laboratory strain of S. aureus, ATCC29213). In words: MIC broth microdilution, ASAU001. In kind it is cell-based. The note with it: Staphylococcus aureus, ATCC29213, read-out: MIC ASAU001. Put shortly:
as §1

Setting [6] is: ATCC25922, read-out: MIC AECO001.
Where [7] appears, read: ATCC25922, read-out: MIC AECO001 HSA AGP.

Values after ≈ are worked out from the molar mass of the structure shown. Where two headings read alike, the source gives them in different places.

Consider `NC[C@H](NC(=O)C#Cc1ccc(C#CCN2CCOCC2)cc1)C(=O)NO` [Example 137-10], for which the MIC is more than 64 µg/mL in the experiment with AECO001 (ATCC25922) (setting [6]); more than 64 µg/mL with AECO001 (ATCC25922) (setting [7]); more than 64 µg/mL in experiment [1]; more than 64 µg/mL in the experiment with APAE001 (ATCC27853); 16 to 64 µg/mL (≈ 43.2 to 173 µM) in experiment [2]; more than 64 µg/mL in experiment [4]. Moreover, the MIC in experiment [5] was more than 64 µg/mL. Further, in experiment [3], the “MIC APAE006 + PMBN” value was “C (MIC's of greater than 16.0 μg/mL to 64.0 μg/mL = C)”.

Take `NC[C@H](NC(=O)c1ccc(C#Cc2ccc(CNC(=O)CCC(=O)O)cc2)cc1)C(=O)NO` [Example 137-11]: the MIC in the experiment on AECO001 (ATCC25922) (setting [6]) is more than 64 µg/mL; in the experiment with AECO001 (ATCC25922) (setting [7]), more than 64 µg/mL; in experiment [1] it was 16 to 64 µg/mL (≈ 35.4 to 141 µM); in the experiment on APAE001 (ATCC27853), 16 to 64 µg/mL (≈ 35.4 to 141 µM); in experiment [2], 2 to 16 µg/mL (≈ 4.42 to 35.4 µM); in experiment [4], more than 64 µg/mL. The MIC in experiment [5] is more than 64 µg/mL. Further, the “MIC APAE006 + PMBN” value in experiment [3] is listed as “B (MIC's of greater than 2.0 μg/mL to 16.0 μg/mL = B)”.

Turning to `C[C@@H](O)[C@H](NC(=O)c1ccc(/C=C/C#Cc2cccc(F)c2)cc1)C(=O)NO` [Example 137-14], the MIC is less than 2 µg/mL in the experiment with AECO001 (ATCC25922) (setting [6]); 16 to 64 µg/mL (≈ 41.8 to 167 µM) in the experiment with AECO001 (ATCC25922) (setting [7]); less than 2 µg/mL in experiment [1]; 2 to 16 µg/mL (≈ 5.23 to 41.8 µM) in the experiment with APAE001 (ATCC27853); less than 2 µg/mL in experiment [2]; 2 to 16 µg/mL (≈ 5.23 to 41.8 µM) in experiment [4]. Also, the MIC in experiment [5] lay within 16 to 64 µg/mL (≈ 41.8 to 167 µM). For the same compound, in experiment [3], the “MIC APAE006 + PMBN” value is on record as “A (MIC's of 2.0 μg/mL or less = A)”.

On to `C[C@@H](N)[C@H](NC(=O)c1ccc(C#Cc2ccc(CNCC(F)(F)F)cc2)cc1)C(=O)NO` [Example 137-16], for which the MIC in the experiment with AECO001 (ATCC25922) (setting [6]) is less than 2 µg/mL; with AECO001 (ATCC25922) (setting [7]), 2 to 16 µg/mL (≈ 4.46 to 35.7 µM); in experiment [1] it was less than 2 µg/mL; in the experiment with APAE001 (ATCC27853), 2 to 16 µg/mL (≈ 4.46 to 35.7 µM); in experiment [2], less than 2 µg/mL; in experiment [4], 2 to 16 µg/mL (≈ 4.46 to 35.7 µM). Further, the MIC in experiment [5] fell in the range of 16 to 64 µg/mL (≈ 35.7 to 143 µM). The “MIC APAE006 + PMBN” value in experiment [3] was “A (MIC's of 2.0 μg/mL or less = A)”.

Regarding `C[C@@H](N)[C@H](NC(=O)c1ccc(C#CC(O)c2ccc(CN3CCOCC3)cc2)cc1)C(=O)NO` (some centres unmarked) [Example 137-17], the MIC with AECO001 (ATCC25922) (setting [6]) fell in the range of 16 to 64 µg/mL (≈ 34.3 to 137 µM); with AECO001 (ATCC25922) (setting [7]), 16 to 64 µg/mL (≈ 34.3 to 137 µM); in experiment [1], 16 to 64 µg/mL (≈ 34.3 to 137 µM); in the experiment with APAE001 (ATCC27853), 16 to 64 µg/mL (≈ 34.3 to 137 µM); in experiment [2], 2 to 16 µg/mL (≈ 4.29 to 34.3 µM); in experiment [4], 16 to 64 µg/mL (≈ 34.3 to 137 µM). Also, the MIC in experiment [5] lay within 16 to 64 µg/mL (≈ 34.3 to 137 µM). Besides, the “MIC APAE006 + PMBN” value in experiment [3] is on record as “A (MIC's of 2.0 μg/mL or less = A)”.

As to `C[C@@H](N)[C@H](NC(=O)c1ccc(C#CC(O)c2ccc(CO)cc2)cc1)C(=O)NO` (some centres unmarked) [Example 137-18], the MIC lay in the range of 16 to 64 µg/mL (≈ 40.3 to 161 µM) in the experiment with AECO001 (ATCC25922) (setting [6]); 16 to 64 µg/mL (≈ 40.3 to 161 µM) in the experiment on AECO001 (ATCC25922) (setting [7]); 16 to 64 µg/mL (≈ 40.3 to 161 µM) in experiment [1]; 16 to 64 µg/mL (≈ 40.3 to 161 µM) with APAE001 (ATCC27853); 2 to 16 µg/mL (≈ 5.03 to 40.3 µM) in experiment [2]; 16 to 64 µg/mL (≈ 40.3 to 161 µM) in experiment [4]. Besides, in experiment [5], the MIC lay in the range of 16 to 64 µg/mL (≈ 40.3 to 161 µM). Moreover, the “MIC APAE006 + PMBN” value in experiment [3] is “B (MIC's of greater than 2.0 μg/mL to 16.0 μg/mL = B)”.

In the case of `C[C@@H](O)[C@H](NC(=O)c1ccc(C#CC#Cc2ccncc2)cc1)C(=O)NO` [Example 137-19], the MIC in the experiment with AECO001 (ATCC25922) (setting [6]) is less than 2 µg/mL; in the experiment with AECO001 (ATCC25922) (setting [7]) it was 2 to 16 µg/mL (≈ 5.5 to 44 µM); in experiment [1], less than 2 µg/mL; in the experiment with APAE001 (ATCC27853), 2 to 16 µg/mL (≈ 5.5 to 44 µM); in experiment [2] it was less than 2 µg/mL; in experiment [4], 16 to 64 µg/mL (≈ 44 to 176 µM). Also, in experiment [5], the MIC was 16 to 64 µg/mL (≈ 44 to 176 µM). Further, the “MIC APAE006 + PMBN” value in experiment [3] was “A (MIC's of 2.0 μg/mL or less = A)”.

Consider `C[C@@H](N)[C@H](NC(=O)c1ccc(C#CC(O)c2ccccc2)cc1)C(=O)NO` (some centres unmarked) [Example 137-20], for which the MIC was 16 to 64 µg/mL (≈ 43.5 to 174 µM) in the experiment on AECO001 (ATCC25922) (setting [6]); 16 to 64 µg/mL (≈ 43.5 to 174 µM) in the experiment with AECO001 (ATCC25922) (setting [7]); 16 to 64 µg/mL (≈ 43.5 to 174 µM) in experiment [1]; 16 to 64 µg/mL (≈ 43.5 to 174 µM) in the experiment with APAE001 (ATCC27853); 2 to 16 µg/mL (≈ 5.44 to 43.5 µM) in experiment [2]; 2 to 16 µg/mL (≈ 5.44 to 43.5 µM) in experiment [4]. Also, in experiment [5], the MIC lay in the range of 16 to 64 µg/mL (≈ 43.5 to 174 µM). The “MIC APAE006 + PMBN” value in experiment [3] was “A (MIC's of 2.0 μg/mL or less = A)”.

Turning to `C[C@@H](N)[C@H](NC(=O)c1ccc(C#CC2CC2)cc1)C(=O)NO` [Example 137-21], the MIC in the experiment with AECO001 (ATCC25922) (setting [6]) is 16 to 64 µg/mL (≈ 53.1 to 212 µM); in the experiment on AECO001 (ATCC25922) (setting [7]), 16 to 64 µg/mL (≈ 53.1 to 212 µM); in experiment [1], 16 to 64 µg/mL (≈ 53.1 to 212 µM); with APAE001 (ATCC27853) it was 2 to 16 µg/mL (≈ 6.64 to 53.1 µM); in experiment [2], less than 2 µg/mL; in experiment [4], 2 to 16 µg/mL (≈ 6.64 to 53.1 µM). Moreover, the MIC in experiment [5] was 16 to 64 µg/mL (≈ 53.1 to 212 µM). Also, the “MIC APAE006 + PMBN” value in experiment [3] was “A (MIC's of 2.0 μg/mL or less = A)”.

`C[C@@H](N)[C@H](NC(=O)c1ccc(C#CC#CC2CCNCC2)cc1)C(=O)NO` [Example 137-22]: the MIC fell in the range of 16 to 64 µg/mL (≈ 43.4 to 174 µM) in the experiment on AECO001 (ATCC25922) (setting [6]); 16 to 64 µg/mL (≈ 43.4 to 174 µM) with AECO001 (ATCC25922) (setting [7]); 16 to 64 µg/mL (≈ 43.4 to 174 µM) in experiment [1]; 2 to 16 µg/mL (≈ 5.43 to 43.4 µM) in the experiment with APAE001 (ATCC27853); 2 to 16 µg/mL (≈ 5.43 to 43.4 µM) in experiment [2]; 16 to 64 µg/mL (≈ 43.4 to 174 µM) in experiment [4]. Also, in experiment [5], the MIC is 16 to 64 µg/mL (≈ 43.4 to 174 µM). In addition, the “MIC APAE006 + PMBN” value in experiment [3] is “B (MIC's of greater than 2.0 μg/mL to 16.0 μg/mL = B)”.
